Where only a bound is given, the exact number is not on record here.

This is an account of results in patent US10981932B2, “Macrocyclic indole derivatives” (Bayer Aktiengesellschaft, priority 2016, dated 2021).

The test system of series [1] is SUDHL10. Kind of series: Anti-proliferative effect (CellTiter-Glo, 72 h), SUDHL10. Type of series: cell-based. The conditions noted are these: Homo sapiens, SU-DHL10, 72 h, SUDHL10 cells, antiproliferation, median, read-out: Antiproli SUDHL10 [M] (median). The method in brief: (§1)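 After seeding, one plate is read right away by CellTiter-Glo luminescence to fix time zero. The treated plates stay at 37 °C in humidified air for 72 h and are then measured with the same reagent and 10 min incubation.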
(Cellular ATP, detected with luciferase, serves as a proxy for viable cell number.)

Series [2] has as its system SUDHL10. The series is described as follows: Induction of caspase-3/7 activity (Caspase-Glo 3/7), SUDHL10. Type of series: cell-based. The conditions noted are these: caspase-3/7 induction, SUDHL10 cells, 3 h treatment, median. The gist of the method:
(§2)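 Apoptosis induction measured as caspase-3/7 activity (Caspase-Glo 3/7) in DLBCL lines after 3 h treatment at 37 °C; EC50 derived relative to the reference compound's maximal induction, with C0 fixed at 1.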

In series [3] the test system is SUDHL5. The series is described as follows: Induction of cytotoxicity (CellTiter-Glo, 5 h), SUDHL5. The following applies: Homo sapiens, SU-DHL-5, 5 h.
The subject of series [4] is SUDHL5. Kind of series: Induction of caspase-3/7 activity (Caspase-Glo 3/7), SUDHL5. The series is classed as cell-based. The conditions noted are these: Homo sapiens, SU-DHL-5, 3 h, caspase-3/7 induction, SUDHL5 cells, 3 h treatment; median. The method in brief: as §2
Series [5] has as its system SUDHL10. Kind of series: Induction of cytotoxicity (CellTiter-Glo, 5 h), SUDHL10.
The target of series [6] is MCL-1 (Homo sapiens, UniProt Q07820). The series is described as follows: Protein-protein interaction assay MCL-1/Noxa BH3 peptide (MCL-1 assay), TR-FRET. Type of series: binding. The following applies: MBP-MCL-1 / Noxa BH3-derived peptide, median. The gist of the method:
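Inhibition values were normalized between DMSO controls with all reagents and controls lacking MCL-1. The binding competition used 1 nM MBP-MCL-1 in pH 7 Tris buffer containing 50 mM KF and 100 mM NaCl, with a 10 min compound preincubation at 22 °C.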
On the technique in general: Time-resolved FRET reads energy transfer from a long-lived donor to a nearby acceptor.

Series [7] has as its system SUDHL5. Kind of series: Anti-proliferative effect (CellTiter-Glo, 72 h), SUDHL5. The following applies: Homo sapiens, SU-DHL-5, 72 h, SUDHL5 cells, antiproliferation, median, read-out: Antiproli SUDHL5 [M] (median). The series is classed as cell-based. The method in brief: as §1
Series [8] concerns A2780. The series is described as follows: Anti-proliferative effect (CellTiter-Glo, 72 h), A2780. The conditions noted are these: Homo sapiens, A2780, 72 h, A2780 cells, median, read-out: IC50 antiproliferation assay A2780 [M] (median). The series is classed as cell-based. The method in brief: as §1
[9] abbreviates: read-out: Cytotox SUDHL5 [M] (median), SUDHL5 cells, cytotoxicity induction, CellTiter-Glo, 5 h incubation, median.
The mark [10] stands for this setting: Homo sapiens, SU-DHL10, 5 h, read-out: Cytotox SUDHL10 [M] (median), SUDHL10 cells, cytotoxicity induction, CellTiter-Glo, 5 h incubation, median.
Setting [11] is: read-out: Cytotox SUDHL5 [M] (median), SUDHL5 cells, cytotoxicity induction, CellTiter-Glo, 5 h, median.
The mark [12] stands for this setting: Homo sapiens, SU-DHL10, 5 h, read-out: Cytotox SUDHL10 [M] (median), SUDHL10 cells, cytotoxicity induction, CellTiter-Glo, 5 h, median.

Chain of MCL-1 (Q07820 whole entry): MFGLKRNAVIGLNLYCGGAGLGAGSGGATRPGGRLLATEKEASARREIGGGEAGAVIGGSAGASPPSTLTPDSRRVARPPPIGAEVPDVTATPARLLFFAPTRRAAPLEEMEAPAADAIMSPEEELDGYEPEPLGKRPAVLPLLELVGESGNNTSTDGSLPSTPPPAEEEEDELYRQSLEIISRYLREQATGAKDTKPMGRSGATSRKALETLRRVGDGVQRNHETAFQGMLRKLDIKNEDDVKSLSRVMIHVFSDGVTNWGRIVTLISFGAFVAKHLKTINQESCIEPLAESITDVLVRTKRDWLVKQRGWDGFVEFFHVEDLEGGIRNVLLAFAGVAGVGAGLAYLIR

Take `CCc1nn(C)c2c1-c1c(C)ccc3c(CCCOc4cccc5cc(F)ccc45)c(C(=O)O)n(c13)CCCCOC2` (racemic) [Example 266, (rac)-3-ethyl-7-{3-[(6-fluoronaphthalen-1-yl)oxy]propyl}1,4-dimethyl-1,10,11,12,13,15-hexahydropyrazolo[4′3′:9,10][1,6]oxazacycloundecino[8,7,6-hi]indole-8-carboxylic Acid]: the IC50 in series [1] (72 h incubation) came out at 2.83e-06 M; in series [3] (setting [9]), 1.76e-06 M; in series [5] (setting [10]), 4.99e-06 M; in series [6] it was 0.00259 µM; in series [7] (72 h incubation), 9.96e-07 M; in series [8] it was 2.83e-05 M. In addition, the EC50 in series [2] (Homo sapiens, SU-DHL10, 3 h) is 4.47 µM; in series [4] it was 1.79 µM.
Consider `CCc1nn(C)c2c1-c1c(C)ccc3c(CCCOc4cc(C)c(Cl)c(C)c4)c(C(=O)O)n(c13)CCCCOC2` (racemic) [Example 269, (rac)-1(3-(4-chloro-3,5-dimethylphenoxy)propyl)-12-ethyl-10,13-dimethyl-4,5,6,7,9,10-hexahydropyrazolo[4′,3′:9,10][1]oxa[6]azacycloundecino[8,7,6-hi]indole-2-carboxylic Acid], for which the IC50 was 7.27e-06 M in series [1] (72 h incubation); 4.98e-06 M in series [3] (setting [9]); 1.47e-05 M in series [5] (setting [10]); 0.00774 µM in series [6]; 2.26e-06 M in series [7] (72 h incubation); 2.93e-05 M in series [8]. In addition, the EC50 in series [2] (Homo sapiens, SU-DHL10, 3 h) is 13.2 µM; in series [4], 4.83 µM.
Turning to `CCc1nn(C)c2c1-c1c(C)ccc3c(CCCOc4cccc5c4CCCC5)c(C(=O)O)n(c13)CCCCOC2` (racemic) [Example 270, (rac)-12-ethyl-10,13-dimethyl-1-(3-((5,6,7,8-tetrahydronaphthalen-1-yl)oxy)propyl)-4,5,6,7,9,10-hexahydropyrazolo[4′,3′:9,10][1]oxa[6]azacycloundecino[8,7,6-hi]indole-2-carboxylic Acid], the IC50 in series [1] (72 h incubation) was 1.2e-05 M; in series [3] (setting [9]), 5.39e-06 M; in series [5] (setting [10]), 2.19e-05 M; in series [6], 0.00578 µM; in series [7] (72 h incubation) it was 5.37e-06 M; in series [8], over 3.3e-05 M. Moreover, the concentration giving a half-maximal response (EC50) in series [2] (Homo sapiens, SU-DHL10, 3 h) turned out to be 19.3 µM; in series [4] it was 6.18 µM.
Turning to `COc1ccc(OCc2nn(C)c3c2-c2cccc4c(CCCOc5cccc6ccccc56)c(C(=O)O)n(c24)CCCCOC3)cc1` (racemic) [Example 319, (rac)-3-[(4-methoxyphenoxy)methyl]-1-methyl-7-[3-(naphthalen-1-yloxy)propyl]-1,10,11,12,13,15-hexahydropyrazolo[4′,3′:9,10][1,6]oxazacycloundecino[8,7,6-hi]indole-8-carboxylic Acid], the IC50 in series [1] (72 h) was determined as 5.93e-06 M; in series [3] (setting [11]) it was 2.11e-05 M; in series [5] (setting [12]), 2.83e-05 M; in series [6], 0.0371 µM; in series [7] (72 h), 1.21e-05 M; in series [8], 1.26e-05 M. The EC50 was 30.7 µM in series [2] (Homo sapiens, SU-DHL10, 3 h) and 18.4 µM in series [4].
`CN1CCCn2c(C(=O)O)c(CCCOc3cccc4ccccc34)c3cccc(c32)-c2c(nn(C)c2C(F)(F)F)C1` (racemic) [Example 324, (rac)-7,10-dimethyl-1-[3-(naphthalen-1-yloxy)propyl]-11-(trifluoromethyl)-4,5,6,7,8,10-hexahydropyrazolo[3′,4′:7,8][1,5]diazecino[9,10,1-hi]indole-2-carboxylic Acid]: the IC50 in series [1] (72 h) was 1.62e-05 M; in series [3] (setting [11]) it was 2.92e-05 M; in series [5] (setting [12]), 2.68e-05 M; in series [5] (read-out: Cytotox SUDHL10 [M] (median), SUDHL10 cells, cytotoxicity induction, CellTiter-Glo, 5 h, median) it was over 3.3e-05 M; in series [6], 0.027 µM; in series [7] (72 h), 1.59e-05 M. In addition, the IC50 in series [8] was 2.46e-05 M. Besides, the EC50 in series [2] (Homo sapiens, SU-DHL10, 3 h) is 32.1 µM; in series [2] it was over 33 µM; in series [4], over 33 µM.
In the case of `Cn1nc(CN2CCCCC2=O)c2c1COCCCCn1c(C(=O)O)c(CCCOc3cccc4ccccc34)c3cccc-2c31` (racemic) [Example 325, (rac)-1-methyl-7-[3-(naphthalen-1-yloxy)propyl]-3-[(2-oxopiperidin-1-yl)methyl]-1,10,11,12,13,15-hexahydropyrazolo[4′,3′:9,10][1,6]oxazacycloundecino[8,7,6-hi]indole-8-carboxylic Acid], the IC50 in series [1] (72 h) is 1.45e-05 M; in series [3] (setting [11]) it was over 3.3e-05 M; in series [5] (setting [12]) it was over 3.3e-05 M; in series [6], 0.0802 µM; in series [7] (72 h), 2.13e-05 M; in series [8], over 3.3e-05 M. In addition, the 50% effective concentration (EC50) is over 33 µM in series [2] (Homo sapiens, SU-DHL10, 3 h) and over 33 µM in series [4].
As to `Cn1nc(CN2CCCC2=O)c2c1COCCCCn1c(C(=O)O)c(CCCOc3cccc4ccccc34)c3cccc-2c31` (racemic) [Example 328, (rac)-1-methyl-7-[3-(naphthalen-1-yloxy)propyl]-3-[(2-oxopyrrolidin-1-yl)methyl]-1,10,11,12,13,15-hexahydropyrazolo[4′,3′:9,10][1,6]oxazacycloundecino[8,7,6-hi]indole-8-carboxylic Acid], the IC50 is 1.9e-05 M in series [1] (72 h); over 3.3e-05 M in series [3] (setting [11]); over 3.3e-05 M in series [5] (setting [12]); 0.0467 µM in series [6]; 1.87e-05 M in series [7] (72 h); over 3.3e-05 M in series [8]. Moreover, the EC50 in series [2] (Homo sapiens, SU-DHL10, 3 h) was over 33 µM; in series [4], over 33 µM.
`CN(C)Cc1nn(C)c2c1-c1cccc3c(CCCOc4cccc5ccccc45)c(C(=O)O)n(c13)CCCCOC2` (racemic) [Example 331, (rac)-3-[(dimethylamino)methyl]-1-methyl-7-[3-(naphthalen-1-yloxy)propyl]-1,10,11,12,13,15-hexahydropyrazolo[4′,3′:9,10][1,6]oxazacycloundecino[8,7,6-hi]indole-8-carboxylic Acid]: the IC50 in series [1] (72 h) was over 3.3e-05 M; in series [3] (setting [11]) it was over 3.3e-05 M; in series [5] (setting [12]) it was over 3.3e-05 M; in series [6], 0.185 µM; in series [7] (72 h), over 3.3e-05 M; in series [8], over 3.3e-05 M. In addition, the EC50 in series [2] (Homo sapiens, SU-DHL10, 3 h) was over 33 µM; in series [4] it was over 33 µM.
`Cn1nc(CN2CCCCC2)c2c1COCCCCn1c(C(=O)O)c(CCCOc3cccc4ccccc34)c3cccc-2c31` (racemic) [Example 332, (rac)-1-methyl-7-[3-(naphthalen-1-yloxy)propyl]-3-(piperidin-1-ylmethyl)-1,10,11,12,13,15-hexahydropyrazolo[4′,3′:9,10][1,6]oxazacycloundecino[8,7,6-hi]indole-8-carboxylic Acid]: the IC50 in series [1] (72 h) was 2.02e-05 M; in series [3] (setting [11]) it was 1.94e-05 M; in series [5] (setting [12]), over 3.3e-05 M; in series [6], 0.203 µM; in series [7] (72 h), 9.13e-06 M; in series [8], over 3.3e-05 M. Moreover, the EC50 was over 33 µM in series [2] (Homo sapiens, SU-DHL10, 3 h) and 18.9 µM in series [4].
Consider `Cn1nc(CN2CCCC2)c2c1COCCCCn1c(C(=O)O)c(CCCOc3cccc4ccccc34)c3cccc-2c31` (racemic) [Example 335, (rac)-1-methyl-7-[3-(naphthalen-1-yloxy)propyl]-3-(pyrrolidin-1-ylmethyl)-1,10,11,12,13,15-hexahydropyrazolo[4′3′:9,10][1,6]oxazacycloundecino[8,7,6-hi]indole-8-carboxylic Acid], for which the IC50 in series [1] (72 h) is 2.24e-05 M; in series [3] (setting [11]), 2.57e-05 M; in series [5] (setting [12]), 2.77e-05 M; in series [6], 0.18 µM; in series [7] (72 h), 1.93e-05 M; in series [8], 2.35e-05 M. Besides, the EC50 was over 33 µM in series [2] (Homo sapiens, SU-DHL10, 3 h) and 27.2 µM in series [4].

By EC50 is commonly meant the concentration that produces a half-maximal response. Low readings indicate a more potent agent, high ones a less potent agent.
